Assay results: patent US5177075A, “Substituted dihydroisoquinolinones and related compounds as potentiators of the lethal effects of radiation and certain chemotherapeutic agents; selected compounds, analogs and process” (priority 1991, dated 1993)
Structures can show the parent of a compound that is named as a salt.

biological target: T1, Poly(ADP-ribose) synthetase (Bos taurus, UniProt P18493); assay: Inhibition of Poly(ADP-ribose) synthetase; type: biochemical, calf; settings: 30° C., 15 minutes, [3H]NAD; read-out: IC50
T1 construct: Poly (ADP-ribose) synthetase from calf thymus; from tissue; host or cells: calf thymus
T1 sequence (P18493 whole entry): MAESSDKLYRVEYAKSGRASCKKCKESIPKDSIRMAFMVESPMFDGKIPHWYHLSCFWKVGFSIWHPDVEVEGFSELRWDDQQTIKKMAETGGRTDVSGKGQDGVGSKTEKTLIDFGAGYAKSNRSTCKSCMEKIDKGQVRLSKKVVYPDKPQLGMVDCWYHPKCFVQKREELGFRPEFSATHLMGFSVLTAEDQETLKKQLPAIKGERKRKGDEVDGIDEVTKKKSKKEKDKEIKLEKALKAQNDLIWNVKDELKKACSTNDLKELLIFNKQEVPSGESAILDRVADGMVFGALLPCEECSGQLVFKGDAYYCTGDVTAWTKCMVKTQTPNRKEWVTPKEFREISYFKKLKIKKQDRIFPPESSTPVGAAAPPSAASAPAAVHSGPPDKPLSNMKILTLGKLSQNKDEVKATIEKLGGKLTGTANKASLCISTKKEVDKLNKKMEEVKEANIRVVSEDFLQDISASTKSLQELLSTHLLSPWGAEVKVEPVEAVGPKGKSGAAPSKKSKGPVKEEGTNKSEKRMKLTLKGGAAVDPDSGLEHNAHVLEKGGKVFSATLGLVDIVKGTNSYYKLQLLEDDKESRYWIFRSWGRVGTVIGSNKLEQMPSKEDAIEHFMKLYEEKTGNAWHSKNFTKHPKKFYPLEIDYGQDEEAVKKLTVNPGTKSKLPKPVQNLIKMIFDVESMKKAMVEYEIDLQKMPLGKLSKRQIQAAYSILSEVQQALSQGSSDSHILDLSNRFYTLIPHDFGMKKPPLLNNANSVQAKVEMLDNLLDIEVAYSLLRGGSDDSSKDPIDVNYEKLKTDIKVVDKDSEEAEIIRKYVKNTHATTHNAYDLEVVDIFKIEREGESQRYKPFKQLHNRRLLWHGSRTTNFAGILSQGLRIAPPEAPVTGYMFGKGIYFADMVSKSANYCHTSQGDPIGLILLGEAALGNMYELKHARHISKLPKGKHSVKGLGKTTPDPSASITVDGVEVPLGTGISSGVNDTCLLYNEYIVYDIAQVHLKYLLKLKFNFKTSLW
Description: The enzyme assay is performed by placing the following in small glass tubes kept at 4°: 100 μl of buffer consisting of 0.5M Tris-HCl pH 8.0, 50 mM MgCl2, and 5 mM dithiothreitol; 50 μl of 1 mM [^3 H]nicotinamide adenine dinucleotide having a specific activity of 15 μCi/μmol; 100 μl of calf thymus DNA (0.3 mg/ml in water); 50 μl of calf thymus histone (Sigma, Type IIA, 0.5 mg/ml); 50 μl of inhibitor or inhibitor solvent; 150 μl of enzyme. The components are thoroughly mixed and warmed to 30° C. in a water bath. After 15 minutes the reaction is stopped by adding 2 ml of ice cold 15% trichloroacetic acid and the tubes are placed on ice for 15 minutes. The precipitate is collected on glass fiber filters and washed five times with ice cold 15% trichloroacetic acid. The filters were dried and radioactivity determined in a liquid scintillation counter.

SMILES	IC50 [nM]
COc1cccc2c1CCNC2=O [Example V, 3,4-Dihydro-5-methoxy-1(2H)-isoquinolinone]	420
CC(=O)Oc1cccc2c1CCNC2=O [Example VI, 5-(Acetyloxy)-3,4-dihydro-1(2H)-isoquinolinone]	2110
O=C1NCCc2c(OCc3ccccc3)cccc21 [Example VII, 3,4-Dihydro-5-(phenylmethoxy)-1(2H)-isoquinolinone]	5200
O=C1NCCc2c(NCc3ccccc3)cccc21 [Example X, 3,4-Dihydro-5-[(phenylmethyl)amino]-1(2H)-isoquinolinone]	2550
CC(=O)Nc1cccc2c1CCNC2=O [Example XI, N-(1,2,3,4-Tetrahydro-1-oxo-5-isoquinolinyl)acetamide]	56700
O=C1NCCc2c(OCC(O)Cc3ccccc3)cccc21 (centres unmarked) [Example XL, 3,4-Dihydro-5-(2-hydroxy-3-phenylpropoxy)-1(2H)-isoquinolinone]	340
COc1cccc2c(=O)[nH]c(-c3ccccc3)cc12 [Example XX, 5-Methoxy-3-phenyl-1(2H)-isoquinolinone]	2120
Nc1c[nH]c(=O)c2ccccc12 [Example XXV, 4-Amino-1(2H)-isoquinolinone monohydrochloride]	660
O=c1[nH]cc(Br)c2c(O)cccc12 [Example XXVI, 4-Bromo-5-hydroxy-1(2H)-isoquinolinone]	61
O=C1NCCc2c(OCCCN3CCCCC3)cccc21 [Example XXVII, 3,4-Dihydro-5-[3-(1-piperidinyl)propoxy]-1(2H)-isoquinolinone]	830
O=C1NCCc2c(OC[C@@H](O)CN3CCCCC3)cccc21 [L, (S)-3,4-Dihydro-5-[2-hydroxy-3-(1-piperidinyl)propoxy]-1(2H)-isoquinolinone]	270
CN(C)COc1cccc2c1CCNC2=O [XIII]	970
COc1cccc2c(=O)[nH]ccc12 [XIV, 5-Methoxy-1(2H)-isoquinolinone]	580
CSC1=NCCc2c(C)cccc21 [XIX, 3,4-Dihydro-5-methyl-1-(methylthio)-isoquinoline]	1550
O=C1NCCc2c(OCCc3ccccc3)cccc21 [XLI, 3,4-Dihydro-5-(phenylethoxy)-1(2H)-isoquinolinone]	600
COc1cccc2c(=O)[nH]nc(C)c12 [XLII, 5-Methoxy-4-methyl-1(2H)phthalazinone]	80
O=C1NCCc2c(OC[C@H](O)CN3CCCCC3)cccc21 [XLIX, (R)-3,4-Dihydro-5-[2-hydroxy-3-(1-piperidinyl)propoxy]-1(2H)-isoquinolinone]	330
O=C1NCCc2c(Cl)cccc21 [XVI, 5-Chloro-3,4-dihydro-1(2H)-isoquinolinone]	310
COc1cccc2c1CCN=C2SC [XVII, 3,4-Dihydro-5-methoxy-1-(methylthio)-isoquinoline]	580
Cc1cccc2c1CC(C)NC2=O (centres unmarked) [XVIII, 3,4-Dihydro-3,5-dimethyl-1(2H)-isoquinolinone]	740
Oc1ncc(Br)c2ccccc12 [XXIII, 4-Bromo-1-isoquinolinol]	360
O=C1NCCc2c(OCC(O)CN3CCOCC3)cccc21 (centres unmarked) [XXIX]	1500
O=C1NCCc2c(OCC(O)CN3CCCC3)cccc21 (centres unmarked) [XXVIII, 3,4-Dihydro-5-[2-hydroxy-3-(1-pyrrolidinyl)propoxy]-1-(2H)-isoquinolinone]	770
CNCC(O)COc1cccc2c1CCNC2=O (centres unmarked) [XXXI, 3,4-Dihydro-5-[2-hydroxy-3-(methylamino)propoxy]-1(2H)-isoquinolinone]	200
CNCCCOc1cccc2c1CCNC2=O [XXXII, 3,4-Dihydro-5-[3-methylamino)propoxy]-1(2H)-isoquinolinone hydrochloride]	330
O=C1NCCc2c(OCCN3CCCCC3)cccc21 [XXXIII, 3,4-Dihydro-5-[2-(1-piperidinyl)ethoxy]-1(2H)-isoquinolinone]	820
